29 molecules from US20050101595A1, “N-containing cycloalkyl-substituted amino-thiazole derivatives and pharmaceutical compositions for inhibiting cell proliferation and methods for their use” (PFIZER INC., priority 2003, published 2005) can be followed below.

One test deals with CDK2/Cyclin A (Homo sapiens, UniProt P24941). Briefly: Inhibition of CDK2/Cyclin A Retinoblastoma Kinase Activity. Conditions: at 0.03 μM. Type of test: biochemical. The method, boiled down:
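Percent inhibition is calculated against DMSO-only wells after subtracting no-enzyme background. The enzyme is human CDK2 complexed with proteolyzed cyclin A, used at 10 nM or 19 nM on an Rb fragment with 25 μM [32/33P]ATP, at pH 7.4 and 30° C.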

Test [1] concerns the target human CDK4 and genetically truncated (1-264) cyclin D3 (Homo sapiens, UniProt P11802). Briefly: Inhibition of CDK4/Cyclin D Retinoblastoma Kinase Activity. It counts as biochemical. The conditions noted are these: at 0.03 μM. In outline: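 Apparent Ki values derive from fitting activity at varied inhibitor concentrations to a competitive (or competitive tight-binding) model. Kinase reactions used 5 nM CDK4/cyclin D3(1-264), Rb fragment substrate and 25 μM ATP. Incubation ran 20 min at 30 °C, extended to 60 min under linear conditions for tight binders.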

A further test concerns HCT-116 cell line. Briefly: Inhibition of cell growth, tetrazolium salt (MTT) assay. Conditions: HCT-116 cells. Type of test: cell-based. The method, boiled down:
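HCT-116 cells in McCoy's 5A medium received compound 4 h after plating (0.5% v/v DMSO) and were incubated three to five days at 37° C, 5% CO2. MTT (0.2 mg/mL final) then added for 4 h; DMSO-solubilized formazan read at 540 nm against 0.5% DMSO-treated controls.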

SMILES strings stand for the structures.

Chain of human CDK4 and genetically truncated (1-264) cyclin D3 (P11802 whole entry, the tested form may be a part): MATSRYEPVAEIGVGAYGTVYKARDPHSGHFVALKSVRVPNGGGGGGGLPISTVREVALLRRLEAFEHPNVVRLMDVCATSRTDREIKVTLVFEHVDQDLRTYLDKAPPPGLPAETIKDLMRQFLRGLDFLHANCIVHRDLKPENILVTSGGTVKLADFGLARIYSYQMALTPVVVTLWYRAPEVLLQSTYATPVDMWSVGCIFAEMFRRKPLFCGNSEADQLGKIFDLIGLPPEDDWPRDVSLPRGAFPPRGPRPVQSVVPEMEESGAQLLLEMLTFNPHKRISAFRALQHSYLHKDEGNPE
Chain of human CDK4 and genetically truncated (1-264) cyclin D3 (P30281 1-264 partner): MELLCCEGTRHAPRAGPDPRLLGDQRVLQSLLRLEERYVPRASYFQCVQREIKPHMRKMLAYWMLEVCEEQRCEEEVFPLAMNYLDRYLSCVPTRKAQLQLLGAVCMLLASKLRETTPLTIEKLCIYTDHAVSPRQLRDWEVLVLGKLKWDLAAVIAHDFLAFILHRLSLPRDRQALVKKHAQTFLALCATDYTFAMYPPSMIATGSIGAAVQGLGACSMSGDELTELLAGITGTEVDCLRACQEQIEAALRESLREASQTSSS

Turning to `Nc1nc(NC2CCN(C(=O)c3ccc(N=Nc4ccccc4)cc3)CC2)sc1C(=O)c1c(F)cccc1F` [Example R13], the “CDK2 % Inhibition at 0.03 μM” value at CDK2/Cyclin A was 32%. In test [1], the “CDK4 % Inhibition at 0.03 μM” value is recorded as 69%. Moreover, in the test with HCT-116 cell line, the “HCT-116 % Inhibition at 0.1 μM” value is recorded as 0% and the “HCT-116 5 Inhibition at 0.25 μM” value was found to be 42.
On the same counts, the results for `CCCCCOc1ccc(C(=O)N2CCC(Nc3nc(N)c(C(=O)c4c(F)cccc4F)s3)CC2)cc1` [Example R14] are 19%, 49%, 0% and 46.
On the same counts, the results for `COC(C(=O)N1CCC(Nc2nc(N)c(C(=O)c3c(F)cccc3F)s2)CC1)(c1ccccc1)C(F)(F)F` (centres unmarked) [Example R16] are −29%, 12%, 6% and 41.
On the same counts, the results for `Nc1nc(NC2CCN(C(=O)c3cc4ccccc4s3)CC2)sc1C(=O)c1c(F)cccc1F` [Example R17] are 66%, 73%, 0% and 45.
Regarding `Nc1nc(NC2CCN(C(=O)c3cccnc3Cl)CC2)sc1C(=O)c1c(F)cccc1F` [Example R18], the “CDK2 % Inhibition at 0.03 μM” value at CDK2/Cyclin A is 25%. Besides, in test [1], the “CDK4 % Inhibition at 0.03 μM” value was 46%. Besides, in the test with HCT-116 cell line, the “HCT-116 % Inhibition at 0.1 μM” value is reported as 0% and the “HCT-116 5 Inhibition at 0.25 μM” value is 45.
On to `CCSc1ncccc1C(=O)N1CCC(Nc2nc(N)c(C(=O)c3c(F)cccc3F)s2)CC1` [Example R19], for which, at CDK2/Cyclin A, the “CDK2 % Inhibition at 0.03 μM” value was 37%. Moreover, in test [1], the “CDK4 % Inhibition at 0.03 μM” value turned out to be 54%. Also, in the test with HCT-116 cell line, the “HCT-116 % Inhibition at 0.1 μM” value was found to be 0% and the “HCT-116 5 Inhibition at 0.25 μM” value was 46.
On the same counts, the results for `Nc1nc(NC2CCN(C(=O)c3ccc(Cl)nc3)CC2)sc1C(=O)c1c(F)cccc1F` [Example R20] are 59%, 85%, 0% and 42.
On the same counts, the results for `Cc1onc(-c2ccccc2)c1C(=O)N1CCC(Nc2nc(N)c(C(=O)c3c(F)cccc3F)s2)CC1` [Example R21] are 2%, 38%, 0% and 47.
On the same counts, the results for `Nc1nc(NC2CCN(C(=O)c3ccc(OC(F)(F)F)cc3)CC2)sc1C(=O)c1c(F)cccc1F` [Example R22] are 22%, 58%, 7% and 48.
Regarding `Nc1nc(NC2CCN(C(=O)c3ccccc3OC(F)(F)F)CC2)sc1C(=O)c1c(F)cccc1F` [Example R23], at CDK2/Cyclin A, the “CDK2 % Inhibition at 0.03 μM” value is reported as −6%. In addition, the “CDK4 % Inhibition at 0.03 μM” value in test [1] amounted to 34%. In the test with HCT-116 cell line, the “HCT-116 % Inhibition at 0.1 μM” value was found to be 2% and the “HCT-116 5 Inhibition at 0.25 μM” value stood at 38.
On the same counts, the results for `Cc1nn(-c2ccccc2)nc1C(=O)N1CCC(Nc2nc(N)c(C(=O)c3c(F)cccc3F)s2)CC1` [Example R24] are 20%, 49%, 5% and 39.
Take `Cc1noc(C)c1C(=O)N1CCC(Nc2nc(N)c(C(=O)c3c(F)cccc3F)s2)CC1` [Example R25]: the “CDK2 % Inhibition at 0.03 μM” value on CDK2/Cyclin A was −9%. Further, the “CDK4 % Inhibition at 0.03 μM” value in test [1] was 22%. Moreover, in the test with HCT-116 cell line, the “HCT-116 % Inhibition at 0.1 μM” value was 0% and the “HCT-116 5 Inhibition at 0.25 μM” value came to 43.
Consider `Cc1onc(-c2c(Cl)cccc2Cl)c1C(=O)N1CCC(Nc2nc(N)c(C(=O)c3c(F)cccc3F)s2)CC1` [Example R26], for which the “CDK2 % Inhibition at 0.03 μM” value at CDK2/Cyclin A was 17%. Also, in test [1], the “CDK4 % Inhibition at 0.03 μM” value stood at 64%. Besides, in the test on HCT-116 cell line, the “HCT-116 % Inhibition at 0.1 μM” value was 0% and the “HCT-116 5 Inhibition at 0.25 μM” value was determined as 46.
On the same counts, the results for `Nc1nc(NC2CCN(C(=O)c3cccnc3Oc3ccccc3)CC2)sc1C(=O)c1c(F)cccc1F` [Example R27] are 6%, 19%, 0% and 43.
In the same order, the values of `CCCSc1ncccc1C(=O)N1CCC(Nc2nc(N)c(C(=O)c3c(F)cccc3F)s2)CC1` [Example R28] are 58%, 66%, 0% and 41.
On the same counts, the results for `Cc1cc(C)c2c(c1C(=O)N1CCC(Nc3nc(N)c(C(=O)c4c(F)cccc4F)s3)CC1)CC(C)(C)C2=O` [Example R29] are 2%, 23%, 0% and 36.
Turning to `Nc1nc(NC2CCN(C(=O)c3cnc(Cl)c(Cl)c3)CC2)sc1C(=O)c1c(F)cccc1F` [Example R30], the “CDK2 % Inhibition at 0.03 μM” value on CDK2/Cyclin A is given as 31%. The “CDK4 % Inhibition at 0.03 μM” value in test [1] is 63%. Besides, in the test with HCT-116 cell line, the “HCT-116 % Inhibition at 0.1 μM” value was determined as 13% and the “HCT-116 5 Inhibition at 0.25 μM” value stood at 43.
On the same counts, the results for `Nc1nc(NC2CCN(C(=O)c3sc4ccccc4c3Cl)CC2)sc1C(=O)c1c(F)cccc1F` [Example R31] are 57%, 60%, 0% and 42.
Turning to `Nc1nc(NC2CCN(C(=O)CSc3ccccc3)CC2)sc1C(=O)c1c(F)cccc1F` [Example R32], the “CDK2 % Inhibition at 0.03 μM” value at CDK2/Cyclin A was 38%. For the same molecule, the “CDK4 % Inhibition at 0.03 μM” value in test [1] is on record as 65%. Also, in the test with HCT-116 cell line, the “HCT-116 % Inhibition at 0.1 μM” value is recorded as 0% and the “HCT-116 5 Inhibition at 0.25 μM” value was found to be 48.
With `COC(=O)c1ccc(C(=O)N2CCC(Nc3nc(N)c(C(=O)c4c(F)cccc4F)s3)CC2)cc1` [Example R33], the “CDK2 % Inhibition at 0.03 μM” value on CDK2/Cyclin A is 58%. For the same molecule, the “CDK4 % Inhibition at 0.03 μM” value in test [1] is 80%. Further, in the test with HCT-116 cell line, the “HCT-116 % Inhibition at 0.1 μM” value is given as 1% and the “HCT-116 5 Inhibition at 0.25 μM” value was 49.
On the same counts, the results for `Nc1nc(NC2CCN(C(=O)c3ccc4c(c3)C(=O)c3ccccc3C4=O)CC2)sc1C(=O)c1c(F)cccc1F` [Example R34] are 35%, 60%, 0% and 55.
In the same order, the values of `Nc1nc(NC2CCN(C(=O)c3ccc(C(F)(F)F)cc3F)CC2)sc1C(=O)c1c(F)cccc1F` [Example R35] are 19%, 21%, 0% and 49.
For the molecule `Nc1nc(NC2CCN(C(=O)c3ccc(F)cc3C(F)(F)F)CC2)sc1C(=O)c1c(F)cccc1F` [Example R36], the “CDK2 % Inhibition at 0.03 μM” value at CDK2/Cyclin A was 21%. In addition, the “CDK4 % Inhibition at 0.03 μM” value in test [1] was 17%. Besides, in the test on HCT-116 cell line, the “HCT-116 % Inhibition at 0.1 μM” value was 0% and the “HCT-116 5 Inhibition at 0.25 μM” value is reported as 51.
In the same order, the values of `Nc1nc(NC2CCN(C(=O)c3c(F)ccc(F)c3F)CC2)sc1C(=O)c1c(F)cccc1F` [Example R37] are 27%, 22%, 0% and 48.
On the same counts, the results for `Nc1nc(NC2CCN(C(=O)c3ccc(C(F)(F)F)cc3C(F)(F)F)CC2)sc1C(=O)c1c(F)cccc1F` [Example R38] are 0%, 35%, 0% and 33.
As to `COC(C(=O)N1CCC(Nc2nc(N)c(C(=O)c3c(F)cccc3F)s2)CC1)(c1ccccc1)C(F)(F)F` (centres unmarked) [Example R39], the “CDK2 % Inhibition at 0.03 μM” value at CDK2/Cyclin A was −6%. In addition, the “CDK4 % Inhibition at 0.03 μM” value in test [1] is on record as 16%. Also, in the test on HCT-116 cell line, the “HCT-116 % Inhibition at 0.1 μM” value came to 5% and the “HCT-116 5 Inhibition at 0.25 μM” value amounted to 51.
On the same counts, the results for `COc1ccc(Oc2ccc([N+](=O)[O-])cc2C(=O)N2CCC(Nc3nc(N)c(C(=O)c4c(F)cccc4F)s3)CC2)cc1` [Example R40] are 41%, 66%, 0% and 43.
For `Nc1nc(NC2CCN(C(=O)c3cccnc3Sc3ccccc3)CC2)sc1C(=O)c1c(F)cccc1F` [Example R41], the “CDK2 % Inhibition at 0.03 μM” value at CDK2/Cyclin A was determined as 24%. For the same molecule, in test [1], the “CDK4 % Inhibition at 0.03 μM” value came to 32%. In the test with HCT-116 cell line, the “HCT-116 % Inhibition at 0.1 μM” value was 0% and the “HCT-116 5 Inhibition at 0.25 μM” value is reported as 41.
On the same counts, the results for `Cc1ccc(Sc2ncccc2C(=O)N2CCC(Nc3nc(N)c(C(=O)c4c(F)cccc4F)s3)CC2)cc1` [Example R42] are 49%, 53%, 0% and 48.
